Reference: patent publication US20260055083A1, “APOL1 INHIBITORS AND METHODS OF USE” (Maze Therapeutics, Inc., priority 2022, published 2026)

Experiments:
[1] = target: T1, APOL1 G2 (Homo sapiens, UniProt O14791, DEL388-389); assay: APOL1 G2 HEK293 rescue of cell death caused by overexpression of APOL1 (CellTiter-Glo); type: cell-based; details: HEK293/T-REx APOL1 G2 clone #2, doxycycline induction, 17 hours, CellTiter-Glo luminescence; reversal of cell death; geometric mean of at least 2 assay runs
T1 construct: expressed in transfected cells; host or cells: HEK293/T-REx APOL1 G2 clone #2, doxycycline-inducible
T1 sequence (O14791 with tags, fused parts or gaps DEL388-389): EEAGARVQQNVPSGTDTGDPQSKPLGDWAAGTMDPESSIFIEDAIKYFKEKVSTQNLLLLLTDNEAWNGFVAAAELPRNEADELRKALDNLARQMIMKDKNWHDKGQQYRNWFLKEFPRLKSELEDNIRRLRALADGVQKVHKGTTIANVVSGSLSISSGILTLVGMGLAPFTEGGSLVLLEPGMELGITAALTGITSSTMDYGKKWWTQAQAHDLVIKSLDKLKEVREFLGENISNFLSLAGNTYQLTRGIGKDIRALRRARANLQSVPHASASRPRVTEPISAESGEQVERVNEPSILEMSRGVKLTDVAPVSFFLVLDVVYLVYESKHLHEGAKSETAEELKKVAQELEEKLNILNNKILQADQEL
Procedure: A HEK293 clonal cell line overexpressing APOL1 G2 (HEK293/T-REx APOL1 G2/clone #2) was maintained in 1×DMEM-GlutaMax (Gibco, 10569-010) media with 10% tetracycline-free FBS (Takara Bio USA, 631101), 5 μg/mL Blasticidin (Gibco, A1113903), and 100 μg/mL Zeocin (Invitrogen, R25001) in T75 flasks. In preparation for the assay, this media was aspirated and 2 mL of prewarmed TrypLE Express (Gibco, 12605-010) was added to a flask to detach cells. The flask was then incubated (humidified, 37° C. with 5% CO2) for 3-5 minutes. Afterwards, 8 mL of prewarmed cell assay media (1×DMEM-GlutaMax media with 10% tetracycline-free FBS) was added to the trypsinized cells. The suspension was gently mixed, and cells were counted using a Countess Cell Counting Chamber (Invitrogen). The suspension was diluted using cell assay media to generate a working stock solution (166,667 cells/mL). Using a MultiDrop Combi (Thermo Electron Corp), 30 μL (final cell density=5,000 cells/well) of the working stock solution was dispensed into each well of white 384-well assay ready plates (Nunc™, 164610) containing 6 ng/mL doxycycline, to induce APOL1 expression, and compound. All compounds were plated in a duplicate 8-point dilution series that consisted of 3-fold stepwise dilutions (0.5% DMSO final). Assay plates were incubated (humidified, 37° C. with 5% CO2) for 17 hours. After the incubation, the plates were equilibrated at room temperature for 1 hour. Next, 15 μl of CellTiter-Glo® reagent (Promega, G7570) was added to each well using a MultiDrop Combi. Plates were placed on an orbital shaker (500 rpm) for 5 minutes to induce cell lysis and then incubated at room temperature for 10 minutes. Luminescence was measured on an Envision plate reader. Collaborative Drug Discovery software was utilized for graphing data. Plots were generated using a four parameter logistic curve fit.
Table B2 below provides the results from this experiment. Unless otherwise specified, EC50 values are reported as the geometric mean of at least 2 assay runs on separate days. Each run represents the average of a technical replicate, where each compound was assayed twice in the same plate. A superscript t symbol indicates a value from the average of a technical replicate from a single assay run, where each compound was assayed twice in the same plate. Compounds in Table B2 are referred to by the corresponding Compound Number in Table 1, which is also referred to in the synthetic examples. When one or more of the numbered compounds are identified by stereochemistry (for example, (R)- or (S)-), the specific stereoisomer for which data is provided in Table B2 may be identified by the elution order of such compound as described in the synthetic examples. To illustrate, Compound 2 is the first-eluting enantiomer of step 4 of Example 1 and Compound 3 is the second-eluting enantiomer of step 4 of Example 1. Further, by way of illustration, Compound 27 is the first-eluting enantiomeric mixture in step 4 of Example 7 and Compound 28 is the second-eluting enantiomeric mixture in step 4 of Example 7. Then, Compound 27 is separated into Compound 29 (the first-eluting enantiomer) and Compound 30 (the second-eluting enantiomer) in Example 8, and Compound 28 is separated into Compound 31 (the first-eluting enantiomer) and Compound 32 (the second-eluting enantiomer) in Example 8. Absolute stereochemistry of such compounds may be identified by methods known in the art.
Rescue EC50 values reported in Table B2 below represent the half-maximal effective concentration for reversal of cell death caused by overexpression of APOL1.

[2] = target: T1, APOL1 G2; assay: APOL1 G2 FLIPR calcium influx assay (HEK T-REx/GCaMP6f/APOL1 G2 K6.3 cells); type: cell-based; details: HEK293 clone expressing GCaMP6f, doxycycline-induced APOL1 G2; prevention of calcium influx; geometric mean of at least 2 assay runs
Procedure: A HEK293 clonal cell line was generated to stably express GCaMP6f, a genetically encoded calcium indicator, and inducibly express APOL1 G2 (HEK T-REx/GCaMP6f/APOL1 G2 K6.3). Cells were maintained in the following standard complete medium: DMEM with 4.5 g/L glucose and sodium pyruvate (BioWhittaker, Lonza, BE12-614F), supplemented with 10% FBS Performance Plus (Gibco, 16000044), 1% penicillin-streptomycin (BioWhittaker, DE17-602E), 2 mM ultraglutamine-1 (BioWhittaker cat. BE 17-605/U1), 50 μg/mL Zeocin (InvivoGen, ant-zn), 2.5 μg/mL Blasticidin (InvivoGen, ant-bl-5), and 25 μg/mL Hygromycin (InvivoGen, ant-hg). Standard propagation conditions consisted of plating 9×10^6, 4×10^6, 2×10^6 cells in a T225 flasks to be processed after 2, 3, or 4 days, respectively.
A source plate was generated containing 20 serially diluted compounds in DMSO (duplicate 8-point dose response). Next, 0.8 μL of compounds were transferred from the source plate to a destination plate prefilled with 79.2 μL of Ca^2+ free Tyrode's buffer (130 mM NaCl, 5 mM KCl, 1 mM MgCl2, 5 mM NaHCO3, 20 mM HEPES at pH 7.4). The destination plate was placed on a plate shaker (5 seconds at 2000 rpm) to mix. […] All transfer and mixing steps were conducted with an CyBi®-Well dispenser.
Cells were split by gently washing with DPBS (Euroclone, ECB4004L), followed by a 5-minute incubation (humidified, 37° C. with 5% CO2) with trypsin-EDTA solution (Euroclone, ECB3052D). Detached cells were diluted with standard complete medium without selective agents, counted, and plated in a 384 MTP microplate (GR4332CPL, Twin Helix) (10,000 cells/well in 25 μl/well) using a MATRIX WellMate dispenser. Plates were placed into a humidified incubator (37° C. with 5% CO2) overnight. The following day, 20 μL of doxycycline (Sigma, D9891) at 20 ng/mL in standard complete medium was added to cells with a CyBi®Drop dispenser to induce APOL1 G2 expression. After a 6-hour incubation (humidified, 37° C. with 5% CO2), cells were washed 3 times with Ca^2+ free Tyrode's Buffer (130 mM NaCl, 5 mM KCl, 1 mM MgCl2, 5 mM NaHCO3, 20 mM HEPES at pH 7.4) using a BIOTEK Microplate washer, such that 10 μL of buffer remained in each well after the final wash. Assay plates were then stored at room temperature for 10 minutes. Next, 10 μL of diluted compounds were transferred to the assay plate from the 2× compound plate using a CyBi®-Well dispenser. Compound incubation was then carried out at room temperature for 10 minutes. The assay plate was transferred to the […] and 20 μL of 10 mM Ca^2+ (final concentration=5 mM) Tyrode's buffer was injected.
Table B1 below summarizes the data from this experiment. Unless otherwise specified, AC50 and values are reported as the geometric mean of at least 2 assay runs on separate days. Each run represents the average of a technical replicate, where each compound was assayed twice in the same plate. A superscript t symbol indicates a value from the average of a technical replicate from a single assay run, where each compound was assayed twice in the same plate.
The AC50 values in Table B1 below reflect the compound's ability to prevent calcium influx by inhibiting APOL1. […] Compounds in Table B1 are referred to by the corresponding Compound Number in Table 1, which is also referred to in the synthetic examples. When one or more of the numbered compounds are identified by stereochemistry (for example, (R)- or (S)-), the specific stereoisomer for which data is provided in Table B1 may be identified by the elution order of such compound as described in the synthetic examples. To illustrate, Compound 2 is the first-eluting enantiomer of step 4 of Example 1 and Compound 3 is the second-eluting enantiomer of step 4 of Example 1. Further, by way of illustration, Compound 27 is the first-eluting enantiomeric mixture in step 4 of Example 7 and Compound 28 is the second-eluting enantiomeric mixture in step 4 of Example 7. […]

Row | SMILES | EC50 [1] [µM] | AC50 [2] [µM]
1 | C[C@@H]1C[C@H](COc2ccc(S(C)(=O)=O)cc2)CN1C1Cc2ccc(Cl)cc2C1 (single isomer, unassigned) [Compound 2] | 0.693 | 1.03
2 | C[C@@H]1C[C@H](COc2ccc(S(C)(=O)=O)cc2)CN1C1Cc2ccc(Cl)cc2C1 (single isomer, unassigned) [Compound 3, (2R,4S)-1-[(2R or 2S)-5-chloro-2,3-dihydro-1H-inden-2-yl]-4-[(4-methanesulfonylphenoxy)methyl]-2-methylpyrrolidine] | 0.398 | 0.721
3 | C[C@@H]1C[C@H](COc2ccc(S(C)(=O)=O)cc2)CN1C1Cc2ccc(Cl)cc2C1 (single isomer, unassigned) [Compound 4, (2R,4S)-1-[(2S or 2R)-5-chloro-2,3-dihydro-1H-inden-2-yl]-4-[(4-methanesulfonylphenoxy)methyl]-2-methylpyrrolidine] | 2.35 | 1.14
4 | C[C@@H]1C[C@H](COc2ccc(S(C)(=O)=O)cc2)CN1C1CCc2ccc(Cl)cc2C1 (single isomer, unassigned) [Compound 5, (2R,4S)-1-[(2S or 2R)-7-chloro-1,2,3,4-tetrahydronaphthalen-2-yl]-4-[(4-methanesulfonylphenoxy)methyl]-2-methylpyrrolidine] | 0.0476 | 0.488
5 | C[C@@H]1C[C@H](COc2ccc(S(=O)(=O)C3CNC3)cc2)CN1C1CCc2ccc(C#N)cc2C1 (single isomer, unassigned) [Compound 27] | 0.145 | –
6 | C[C@@H]1C[C@H](COc2ccc(S(=O)(=O)C3CNC3)cc2)CN1C1CCc2ccc(C#N)cc2C1 (single isomer, unassigned) [Compound 28] | 0.401 | –
7 | C[C@@H]1C[C@H](COc2ccc(S(=O)(=O)C3CNC3)cc2)CN1C1CCc2ccc(C#N)cc2C1 (single isomer, unassigned) [Compound 29] | 0.0584 | –
8 | CN=S(C)(=O)c1ccc(OC[C@H]2C[C@@H](C)N(C3CCc4ccc(C#N)cc4C3)C2)cc1 (single isomer, unassigned) [Compound 37, (7R or 7S)-7-[(2R,4S)-2-methyl-4-({4-[methyl(methylimino)oxo-λ^6-sulfanyl]phenoxy}methyl)pyrrolidin-1-yl]-5,6,7,8-tetrahydronaphthalene-2-carbonitrile] | 0.769 | –
9 | C[C@@H]1CN(CC(O)c2cccc(Cl)c2)C[C@H]1COc1ccc(S(C)(=O)=O)cc1 (single isomer, unassigned) [Compound 91, (1R) or (1S)-1-(3-chlorophenyl)-2-[trans-3-[(4-methanesulfonylphenoxy)methyl]-4-methylpyrrolidin-1-yl]ethan-1-ol] | 1.61 | –
10 | COC(=O)CCCS(=O)(=O)c1ccc(OC[C@@H]2CN(CCc3cccc(Cl)c3)C[C@H]2C)cc1 [Compound 79, methyl 4-(4-{[(3S,4S)-1-[2-(3-chlorophenyl)ethyl]-4-methylpyrrolidin-3-yl]methoxy}benzenesulfonyl)butanoate] | 0.334 | –
11 | C[C@@H]1CN(CCc2cccc(C#N)c2)C[C@H]1COc1cc(F)c(S(C)(=O)=O)c(F)c1 [Compound 81, 3-{2-[(3S,4S)-3-[(3,5-difluoro-4-methanesulfonylphenoxy)methyl]-4-methylpyrrolidin-1-yl]ethyl}benzonitrile] | 0.144 | –
12 | Cc1cc(OC[C@@H]2CN(CCc3cccc(C#N)c3)C[C@H]2C)cnc1S(C)(=O)=O [Compound 87, 3-{2-[(3S,4S)-3-{[(6-methanesulfonyl-5-methylpyridin-3-yl)oxy]methyl}-4-methylpyrrolidin-1-yl]ethyl}benzonitrile] | 0.185 | –
13 | C[C@H]1CN(CCc2cccc(Cl)c2)C[C@@H]1COc1ccc(S(C)(=O)=O)cc1 [Compound 92, (3R,4R)-1-[2-(3-chlorophenyl)ethyl]-3-[(4-methanesulfonylphenoxy)methyl]-4-methylpyrrolidine] | 2.07 | –
